Data as given in patent US20020115723A1, “Cysteine derivatives” (AJINOMOTO CO., INC., priority 1998, published 2002).
Values joined by “and” are separate entries in the source; they are usually repeats but may differ in a detail not shown here. Equal entries are not always repeated.

Assays:
NF-κB = assay: Test on the function of inhibiting the activation of NF-κB induced by ultraviolet rays (gel shift assay); type: cell-based, human; details: human epidermal cells, UVB 50 mJ/cm^2
Description: Test on the Function of Inhibiting the Activation of NF-κB Induced by Ultraviolet Rays.
After 18 hours had elapsed, the culture medium was substituted by a phenol red-free medium. The cells were exposed to ultraviolet rays (UVB: 50 mJ/cm^2) from an ultraviolet irradiator “Dermaray M-DMR-80” (ex Toshiba Medical Supply Co., Ltd.). After 4 to 5 hours had elapsed, the cells were collected, and the nucleoprotein was extracted therefrom in a manner known per se in the art. From the resulting nucleoprotein, the activated NF-κB was detected in accordance with the gel shift assay. The amount of the NF-κB was determined by measuring the radioactive value of the NF-κB band with the use of a bioimaging analyzer “BAS 2000” (ex Fuji Film Co., Ltd.).
The inhibition ratio of the activation of the NF-κB of the test compounds was calculated from the below-described formula (1).
Inhibition ratio of NF-κB activation (%)={1−(A1-A3)/(A2-A3)}×100 (1)
A1: radioactive value of the NF-κB upon addition of a test compound
A2: radioactive value of NF-κB when a test compound is not added
A3: radioactive value of NF-κB when a test compound is not added and is not exposed to ultraviolet rays.

human epidermal cells = assay: Toxicity to the cultured human epidermal cells seen in the NF-κB / AP-1 activation tests; type: cell-based
Description: Each of the test compounds was added to a culture plate at a concentration within an extent not causing a damage to the human epidermal cells which had reached the confluent stage in the culture plate. After 18 hours had elapsed, the culture medium was substituted by a phenol red-free medium. The cells were exposed to ultraviolet rays (UVB: 50 mJ/cm^2) from an ultraviolet irradiator “Dermaray M-DMR-80” (ex Toshiba Medical Supply Co., Ltd.). After 4 to 5 hours had elapsed, the cells were collected, and the nucleoprotein was extracted therefrom in a manner known per se in the art. From the resulting nucleoprotein, the activated NF-κB was detected in accordance with the gel shift assay. The amount of the NF-κB was determined by measuring the radioactive value of the NF-κB band with the use of a bioimaging analyzer “BAS 2000” (ex Fuji Film Co., Ltd.).
(§1) In a similar manner to Test Example 1, a nucleoprotein was obtained. Then, the activated AP-1 was detected by the gel shift assay. The radioactive value of the AP-1 band was measured as in Test Example 1, whereby the amount of the AP-1 was determined. The AP-1 activation inhibiting ratio of the test compounds was calculated by the below-described equation (2). The results of the test compounds according to the present invention are shown below in Table 4a, while those of the comparative compounds are shown below in Table 4b.

Hairless mice (SKH-1) [1] = assay: Test on suppressing function of wrinkles formation induced by ultraviolet rays (No. 1); type: in vivo, mouse; details: for Wrinkle score, individual mouse / Wrinkle score, Average: 10% applied; for Wrinkle score, individual mouse: score 0 to 5
Description: Test on Suppressing Function of Wrinkles Formation Induced by Ultraviolet Rays (No. 1)
(§2) Hairless mice (SKH-1, female, 5-6 weeks old) were exposed to ultraviolet rays (UVB) three times/week (Monday, Wednesday and Friday) for 5 weeks, each at 50 to 100 mJ/cm^2 by using the above-described “Dermaray M-DMR-80” (ex Toshiba Medical Supply Co., Ltd.). The test compound (N,N′-diacetyl-L-cystine dimethyl ester) was dissolved in a mixed solvent of propylene glycol, ethanol and water, and was applied to the back portion of each of the mice in an amount of 100 μl, 30 to 60 minutes before exposure to ultraviolet rays, just after the completion of the exposure, and on the days free from exposure to ultraviolet rays (Sunday, Tuesday, Thursday and Saturday). From two weeks after the exposure had started, the wrinkles formed on the back portion of each mouse were evaluated once a week based on the below-described standards, and they were indicated as scores. In addition, the function of the inventive compound for inhibiting wrinkle formation induced by ultraviolet rays was judged based on the below-described judging standards.

AP-1 = assay: Test on the function of inhibiting the AP-1 activation induced by ultraviolet rays (gel shift assay); type: cell-based, human; details: single compound
Description: Test on the Function of Inhibiting the AP-1 Activation Induced by Ultraviolet Rays.
as §1
AP-1 activation inhibiting ratio (%)={1−(B1-B3)/(B2-B3)}×100 (2)
B1: radioactive value of the AP-1 band upon addition of a test compound.
B2: radioactive value of the AP-1 band when a test compound is not added.
B3: radioactive value of the AP-1 band when a test compound is not added and is not exposed to ultraviolet rays.

Hairless mice (SKH-1) [2] = assay: Test on inhibiting function of wrinkles formation induced by ultraviolet rays (No. 2), Components (A) and (B) in combination; type: in vivo, mouse; set-up: scale not given here; details: 10% alone
Description: as §2
Test on Inhibiting Function of Wrinkles Formation Induced by Ultraviolet Rays (No. 2)
Function of suppressing ultraviolet ray-induced wrinkles formation by the synergistic effects when Components (A) and (B) were used in combination, was judged in a similar manner to Test Example 2. Fifteen to twenty mice were divided into 4 groups, that is, a 1st group to which a mixed solvent of propylene glycol, ethanol and water was to be applied, a 2nd group to which a solution of only Component (A) dissolved in the above-described solvent was to be applied, a 3rd group to which a solution of only Component (B) dissolved in the above-described solvent was to be applied, and a 4th group to which a solution of both Components (A) and (B) dissolved in the above-described solvent was to be applied. An average score of each group was determined.

SMILES	Inhibition ratio (%) of NF-κB activation (NF-κB; addition concentration 0.5 mM) [%]	Inhibition ratio (%) of NF-κB activation (NF-κB; addition concentration 1 mM) [%]	Toxicity expressed (inhibition ratio) (human epidermal cells; addition concentration 5 mM, NF-κB test)	Inhibition ratio (%) of NF-κB activation (NF-κB; addition concentration 0.01 mM) [%]	Inhibition ratio (%) of NF-κB activation (NF-κB; addition concentration 0.1 mM) [%]	Wrinkle score, individual mouse (Hairless mice (SKH-1) [1]; 2nd week of UVB exposure)	Wrinkle score, Average (Hairless mice (SKH-1) [1]; 2nd week, solvent group 2.6)	Wrinkle score, individual mouse (Hairless mice (SKH-1) [1]; 3rd week of UVB exposure)	Wrinkle score, Average (Hairless mice (SKH-1) [1]; 3rd week, solvent group 3.6)	Wrinkle score, individual mouse (Hairless mice (SKH-1) [1]; 4th week of UVB exposure)	Wrinkle score, Average (Hairless mice (SKH-1) [1]; 4th week, solvent group 4.0)	Wrinkle score, individual mouse (Hairless mice (SKH-1) [1]; 5th week of UVB exposure)	Wrinkle score, Average (Hairless mice (SKH-1) [1]; 5th week, solvent group 4.4)	Effect on wrinkle formation induced by ultraviolet rays (in words) (Hairless mice (SKH-1) [1]; summary of Table 3)	AP-1 activation Inhibiting ratio (%) (AP-1; 10 μM)	Wrinkle score (group average) (Hairless mice (SKH-1) [2]; 4th week)	Wrinkle score (group average) (Hairless mice (SKH-1) [2]; 5th week)	Toxicity expressed (in inhibiting ratio column) (human epidermal cells; 100 μM, AP-1 test)	AP-1 activation Inhibiting ratio (%) (AP-1; 1 μM)
CCOC(=O)[C@@H](N)CS [L-cysteine ethyl ester]	60	61	Toxity																
COC(=O)[C@H](CSSC[C@H](NC(C)=O)C(=O)OC)NC(C)=O [N,N′-diacetyl-L-cystine dimethyl ester]				47	86	2 and 1 (4×) and 0 and 3	1.3	2 (5×) and 3 and 1	2.0	3 (3×) and 5 (2×) and 2 and 4	3.6	2 (3×) and 3 (3×) and 4	2.7	exhibited effects for retarding and alleviating the wrinkle formation induced by ultraviolet rays	4	5.0 and 3.0 and 2.5	4.0 and 2.0		
CC1=C(/C=C/C(C)=C/C=C/C(C)=C/C=C/C=C(C)/C=C/C=C(C)/C=C/C2=C(C)C(=O)[C@@H](O)CC2(C)C)C(C)(C)C[C@H](O)C1=O [astaxantin]															0			Toxicity	−54
